Columns and labels:
[1] = In vitro metabolic half-life in human whole blood; assay type: in vitro ADME; details: male, Human (n = 4), 37°C, read-out: Mean t1/2 Value
Procedure: Human whole blood stability experiments were conducted in whole blood from four human donors (male, 18–25 years). Single experiments were conducted with pooled blood from Sprague-Dawley rats (male, 8 weeks, n = 3), New Zealand White rabbits (male, 8–10 weeks, n = 3), Beagle dogs (male, 2–3 years, n = 3) and Cynomolgus monkeys (male, 3–4 years, n = 3). All the blood samples were provided by Xuzhou Medical College. A 1.35-ml aliquot of blood was warmed at 37°C for 5 min and hypnotic (from a 40 mM stock in DMSO solution) was added to a final concentration of 200 µM. After the specified incubation time, a 150-µl sample was removed and the metabolic reaction was quenched using 150-µl acetonitrile. Zero time-point samples were prepared by adding 150-µl acetonitrile (using a 4 mM stock in DMSO) to 150-µl blood before addition of the hypnotic. The quenched samples were centrifuged, and the supernatant was separated and stored at −20°C until analyzed. Hypnotic concentrations in thawed samples were determined by high-performance liquid chromatography using a 3-µm phenyl 4.6×50-mm C-A-25, ACE column with the UV detector set at 240 nm. […] The lower limit of quantitation of this assay is 3 µM and the accuracy within 15% at 10 µM. The metabolic half-lives were quantified from the incubation time-dependent change in drug concentration.

[2] = system: GABAA receptor; test: GABAA radioligand binding assay ([3H]EBOB); details: 50 µM compound, 0.5 nM [3H]EBOB, rat frontoparietal cortex
Procedure: All the new compounds were dissolved in 5% DMSO.
Specific binding was determined in the presence of compounds.
Membrane suspensions were thawed and centrifuged in incubation buffer at 10,000×g for 10 min and washed by a similar centrifugation. For displacement studies, membrane suspensions (5 mg original wet wt./ml) were incubated with 0.5 nM [^3H]EBOB ([…], Perkin Elmer Life Sciences, Boston, MA, USA) in the absence or presence of 50 µM of new compounds or reference drug for 2 h at 25°C. Nonspecific binding was determined in the presence of 10 µM Bicuculline. Bicuculline and picrotoxin were frequently used to determine the nonspecific binding when [3H]EBOB as radioligand [17]. Triplicate 1 ml samples were filtered on Whatman GF/B filters under vacuum with a Brandel Harvester and washed with 3×3 ml ice-cold buffer.

[3] = system: rabbits; test: Therapeutic index (LD50/HD50) in rabbits; assay type: in vivo, rabbit
Procedure: The LD50 was determined in mice, rats, and rabbits and the TI was calculated as LD50/HD50.

[4] = system: mice; test: animal or person; assay type: in vivo; details: mice
Procedure: (§1) All tests were performed during the light period. Groups of mice, rats and rabbits were injected intravenously (lateral tail vein) over 10 s with each dose of test compound, placed in separate boxes to reduce external stimuli and assessed for the loss of righting reflex. Dosing was performed using mg/kg scheme. A set of dose levels was chosen, and depending on whether the loss of righting reflex was observed, extra doses were introduced to provide data for the loss of righting reflex over a narrow dose range to allow potency calculations. From the percentage of mice, rats and rabbits in each group showing loss of righting reflex for ≥30 s, a probit analysis (SAS Institute) was performed to obtain an HD50 for each compound with 95% confidence limits.
(§2) Immediately following the injection, the mice, rats and rabbits were tested for loss of righting reflex. […] Once a loss was observed, the interval between the loss of righting reflex and the return to righting reflex was recorded. The anesthetized animals recovered righting reflexes spontaneously. To compare the duration of LORR of each compound at equipotent doses, groups of mice, rats and rabbits were injected with each compound at 2× HD50 over 10 s.
(§3) Time to walk was the time required after righting before mice and rabbits walked from the center to the periphery of a 30-cm diameter dise.
The rotarod test was conducted to evaluate the recovery to the motor coordination. Before the LORR test, mice were trained for 2 consecutive days. Trained mice could maintain their balance on rod for more than 2 mins. After the mice could walk from the center to the periphery of a 30-cm diameter dise, they were put on the rotarod. Mice were classified as behavioral recovery when, on being placed on the rod, they could maintain their balance for 20 s. The time to behavioral recovery was the time required after mice walked from the centre to the periphery of a 30-cm diameter disc before they could maintain their balance on rod for 20 s.

[5] = system: rabbits; test: Hypnotic potency and recovery after IV bolus in rabbits; assay type: in vivo, rabbit
Procedure: as §1, with “calculations.” for “calculations. From the percentage of mice, rats and rabbits in each group showing loss of righting reflex for ≥30 s, a probit analysis (SAS Institute) was performed to obtain an HD50 for each compound with 95% confidence limits.”
as §2, with “The anesthetized animals recovered righting reflexes spontaneously.” left out
as §3

Q: Which results are given for CCOc1cc(CC(=O)OCC(F)(F)F)ccc1OCC(=O)N(CC)CC [Compound 5j, 2,2,2-trifluoroethyl 2-(4-(2-(diethylamino)-2-oxoethoxy)-3-ethoxyphenyl)acetate]?
A: half-life at 200 µM [1]: 25.5 ± 5.6 min; GABAA binding (50 µmol) (Mean ± SD), percentage of inhibition [2]: 90.5±6.9%; TI [3]: 21.2; ED50 ([4]; Mus musculus, IV over 10 s, 95% confidence limits, read-out: HD50 (the source's name)): 24.6 mg/kg; Time to walk ([4]; 2× HD50): 17.3 ± 5.8 s; time to behavioral recovery ([4]; 2× HD50, rotarod): 28.2 ± 6.4 s; Duration of LORR ([4]; IV 2× HD50, mean ± SD (n = 10)): 59.1 ± 7.4 s; Onset time ([4]; IV, mean ± SD (n = 10)): 5.3 ± 1.2 s; Duration of LORR ([5]; 2× HD50 dose, mean ± SD): 208.3 ± 19.8 s; Time to walk ([5]; 2× HD50 dose, mean ± SD): 15.5 ± 7.5 s; HD50 ([5]; IV, 95% confidence limits): 6.2 (4.7∼7.0) mg/kg
